{
  "source": "paper PMC4214152",
  "about": "(Chemical science (Royal Society of Chemistry : 2010), 2011)",
  "key": {"HFL-1 lung fibroblasts": {"tested_on": "HFL-1 lung fibroblasts", "conditions": "HFL-1, 100 μM, 24 h incubation"}, "[1]": {"target": "purified human αIIbβ3 integrin receptor (Homo sapiens, UniProt P05106+P08514)", "type": "binding"}, "[2]": {"tested_on": "NCI-H1975 lung carcinoma cells", "assay": "Cell viability by MTT assay", "type": "cell-based", "conditions": "NCI-H1975, 100 μM, 24 h"}, "[3]": {"tested_on": "AsPC-1 pancreatic carcinoma", "assay": "Cell viability by MTT assay", "type": "cell-based", "conditions": "AsPC-1, 100 μM, 24 h"}, "αvβ3 integrin receptor": {"target": "αvβ3 integrin receptor (Homo sapiens, UniProt P05106+P06756)", "type": "binding"}, "αIIbβ3 integrin": {"target": "αIIbβ3 integrin (Homo sapiens, UniProt P05106+P08514)", "assay": "Hyperpolarized 129Xe NMR binding assay"}, "physchem": {"assay": "physchem", "type": "physicochemical"}, "[4]": {"conditions": "50 μM with 16 μM αIIbβ3 integrin, Tris buffer, 30% glycerol, 0.1% Triton X-100"}},
  "data": [
    {"compound": "C#CCOc1cc2c3cc1OCCOc1cc4c(cc1OC)Cc1cc5c(OC)cc1Cc1cc(c(OC)cc1C4)OCCOc1cc(c(cc1OCC#C)Cc1cc(c(OCc4cn(CCCC[C@@H]6NC(=O)[C@@H](Cc7ccc(O)cc7)NC(=O)[C@H](CC(=O)O)NC(=O)CNC(=O)[C@H](CCCNC(=N)N)NC6=O)nn4)cc1C3)OCCO5)C2", "note": "[Biosensor 3]", "values": [
      {"measurement": "maximum toxicity", "setting": "HFL-1 lung fibroblasts", "result": 40, "unit": "%"},
      {"measurement": "weaker binding compared to c[RGDyK] peptide", "setting": "[1]", "result": "approximately 10 fold"},
      {"measurement": "maximum toxicity", "setting": "[2]", "result": 57, "unit": "%"},
      {"measurement": "maximum toxicity", "setting": "[3]", "result": 61, "unit": "%"},
      {"measurement": "lower affinity compared to c[RGDyK] peptide alone", "setting": "αvβ3 integrin receptor", "result": "approximately 4 fold"}
    ]},
    {"compound": "COc1cc2c3cc1OCCOc1cc4c(cc1OCc1cn(CCCC[C@@H]5NC(=O)[C@@H](Cc6ccc(O)cc6)NC(=O)[C@H](CC(=O)O)NC(=O)CNC(=O)[C@H](CCCNC(=N)N)NC5=O)nn1)Cc1cc5c(OCc6cn(CCC(=O)O)nn6)cc1Cc1cc(c(OCc6cn(CCC(=O)O)nn6)cc1C4)OCCOc1cc(c(cc1OC)Cc1cc(c(OC)cc1C3)OCCO5)C2", "note": "[Biosensor 5]", "values": [
      {"measurement": "129Xe NMR chemical shift of \"bound\" biosensor", "setting": "αIIbβ3 integrin; [4]", "result": 71.2, "unit": "ppm"},
      {"measurement": "129Xe NMR chemical shift of \"free\" biosensor", "setting": "αIIbβ3 integrin; [4]", "result": 67.1, "unit": "ppm"},
      {"measurement": "129Xe NMR chemical shift of biosensor alone", "setting": "αIIbβ3 integrin; 100 μM, Tris buffer (1 mM, pH 7.2)", "result": 65.8, "unit": "ppm"},
      {"measurement": "solubility", "setting": "physchem", "result": "≤ 250", "unit": "µM"}
    ]}
  ]
}
